The values that follow come from article PMC10374545, “A small molecule inhibitor of PTP1B and PTPN2 enhances T cell anti-tumor immunity” (Nature Communications, 2023).

Experiment [1] has as its target T1, CD45 (Homo sapiens, UniProt P08575).
T1 construct: CD45, residues 620-1236; made in house; host or cells: E. coli BL21(DE3)
Description: PTP selectivity, DiFMUP assay. Conditions: DiFMUP at Km. The class given is biochemical. The protocol: E. coli BL21(DE3) (Novagen) was used as an expression host and the induction of protein expression was carried out in LB media with 1 mM IPTG at 18 °C overnight. Cell pellets were stored at −80 °C for subsequent protein purification.
Protein purification of PTPs for enzymatic assays was conducted at 4 °C. Frozen cell pellets were lysed by sonication in 40 ml cold lysis buffer (50 mM Tris-HCl, pH 8.0, 150 mM NaCl, 5 mM imidazole, and 1 mM PMSF) per litre cell pellet. Cell lysates were clarified by centrifugation using a Beckman JA-18 rotor for 15 min at 5308 x g. The supernatant was incubated with HisPur Ni-NTA resin (Thermo Scientific) for 2 h and then packed onto a column and washed with 50 resin volume of buffer A (50 mM Tris-HCl, pH 8.0, 500 mM NaCl, 5 mM imidazole). The His-tagged proteins were eluted with Buffer B (50 mM Tris-HCl, pH=8.0, 500 mM NaCl, 300 mM imidazole,). Pooled His-protein-containing fractions were concentrated, loaded onto a HiLoad 26/600 Superdex 75 column (GE Healthcare Biosciences) and eluted with storage buffer (50 mM Tris-HCl, pH 8.0, 150 mM NaCl, 1 mM DTT, 10% glycerol). […] The protein was aliquoted and stored at −80 °C.
The PTP kinetic assay was modified from previous reported protocols[73],[74]. PTP activity was assayed using 6,8-Difluoro-4-Methylumbelliferyl Phosphate (DiFMUP, Invitrogen, cat# D6567,) as a substrate in 3,3-Dimethylglutaric acid (DMG) buffer (50 mM DMG, pH 7.0, 1 mM EDTA, 18 mM NaCl, 0.01% Triton X-100) at 25 °C. To determine the IC50 values, the assays were performed in 96-well plates (Corning Costar 3915). […] The final reaction volume is 200 µl. The reaction was allowed to proceed for 10 min and then quenched by the addition of 40 µl of a 160 µM solution of bpV(Phen) (Sigma-Aldrich, cat# SML0889). The fluorescence signal was measured using a CLARIOstar Plus Microplate Spectrophotometer (BMG Labtech) using excitation and emission wavelengths of 340 nm and 450 nm, respectively. Data were fitted using Prism GraphPad 9.2.0.
To determine the mode of inhibition, the reactions were initiated by the addition of enzyme (final concentration for PTP1B and PTPN2 was 0.05 nM) to the reaction mixtures (0.2 ml) containing various concentrations of DiFMUP with different concentrations of the inhibitor. The reaction was allowed to proceed for 10 min and then quenched by the addition of 40 µl of a 160 µM solution of bpV(Phen) (Sigma-Aldrich, cat# SML0889). The fluorescence signal was measured using a CLARIOstar Plus Microplate Spectrophotometer (BMG Labtech) using excitation and emission wavelength of 340 nm and 450 nm, respectively. Data were fitted using Prism GraphPad 9.2.0. For selectivity studies, the inhibition assay for other PTPs were performed under the same conditions as used for PTP1B and PTPN2 except with different DiFMUP concentration corresponding to the Km of the PTP studied.

The subject of experiment [2] is MC38 colon tumors. Kind of experiment: MC38 colon tumor growth in C57BL/6 mice. The class given is in vivo, mouse. The protocol:
(§1) Male or female mice were injected subcutaneously with 5 × 10^5 MC38 tumor cells resuspended in 100 μl D-PBS into the flank. Alternatively, female mice were injected orthotopically with 5 × 10^5 AT3 or AT3-OVA or PTPN2-deleted AT3 or AT3-OVA tumor cells resuspended in 20 μl D-PBS into the fourth mammary fat pad. Tumor sizes were measured in two dimensions (mm^2) using electronic callipers two to three times per week as soon as tumors were palpable (20–25 mm^2).

The subject of experiment [3] is STAT-5 Y694 phosphorylation in NK cells. Description: IL-15-induced p-STAT-5 in NK cells. The class given is cell-based, mouse. The conditions noted are these: 0.1 or 1 (µM in figure, µg/ml in legend). The method, then: proliferation in vitro. a-b) NK cells from C57BL/6 male mice (n=3 per group) were expanded […]
µg/ml) or vehicle (1% v/v DMSO) in the absence of IL-15. a) NK cells were re-stimulated for 15 min with the indicated amounts of IL-15 and Y694 phosphorylated STAT-5 (p-STAT-5) mean fluorescence intensities (MFIs) determined by flow cytometry. b) Alternatively, NK cells were stained with carboxyfluorescein succinimidyl ester (CFSE, Invitrogen) and then re-stimulated with the indicated amounts of IL-15 for 96 h and NK cell proliferation (CFSE dilution) monitored by flow cytometry. c-d) NK cells from C57BL/6 male mice (n=3 per group) were expanded ex vivo in the presence of IL-15 and then pre-treated with CMP-182 (0.1 or 1 µg/ml) or vehicle in the absence of IL-15. NK cells were re-stimulated with either IL-12 (10 ng/ml) or IL-18 (100 ng/ml) or with α-NK1.1 or α-Ly49H for 4 h. NK cells were maintained in 10 ng/ml IL-15 throughout the 4 h incubation time. Percentages of c) IFN-γ+ and d) CD107A+ NK cells were determined by flow cytometry. In (a-d) results shown are means ± SEM and are representative of at least two independent experiments.

Experiment [4] has as its system AT3 mammary tumors. Kind of experiment: AT3 tumor growth, Compound 182 with α-PD-1 checkpoint blockade. It counts as in vivo, mouse. The method, then:
as §1
In addition, mice received four intraperitoneal injections of α-PD-1 (200 μg in 200 μl D-PBS; clone RMP1-14), or rat IgG2a isotype control (100 μg in 200 μl D-PBS, Bio X Cell) twice per week.

Where “and” joins values, the source holds several entries; their conditions need not be identical. Equal values may be shown once.

T1 sequence (P08575 620-1236): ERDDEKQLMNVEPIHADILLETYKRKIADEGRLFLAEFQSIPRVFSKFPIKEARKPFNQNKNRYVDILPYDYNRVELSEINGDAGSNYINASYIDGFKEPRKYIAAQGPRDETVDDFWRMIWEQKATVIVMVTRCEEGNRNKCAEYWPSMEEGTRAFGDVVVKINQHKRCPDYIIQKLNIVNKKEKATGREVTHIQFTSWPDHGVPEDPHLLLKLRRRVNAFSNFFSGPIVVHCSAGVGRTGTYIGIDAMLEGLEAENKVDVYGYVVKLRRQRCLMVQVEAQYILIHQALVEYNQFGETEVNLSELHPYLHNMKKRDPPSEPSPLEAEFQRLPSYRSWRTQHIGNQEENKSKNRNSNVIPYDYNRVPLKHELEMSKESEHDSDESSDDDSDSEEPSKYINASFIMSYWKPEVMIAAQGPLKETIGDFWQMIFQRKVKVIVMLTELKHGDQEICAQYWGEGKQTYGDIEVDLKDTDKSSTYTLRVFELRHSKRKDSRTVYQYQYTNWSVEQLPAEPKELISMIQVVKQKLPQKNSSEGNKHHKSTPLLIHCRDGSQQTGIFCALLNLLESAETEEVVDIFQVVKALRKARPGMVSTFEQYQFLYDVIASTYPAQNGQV

As a reminder, the IC50 is the midpoint of a concentration-inhibition curve. A low value points to greater potency. `CC(C)(O)CCOc1ccc2cc(O)c(N3CC(=O)NS3(=O)=O)c(F)c2c1` [Compound 182, 5-(1-Fluoro-3-hydroxy-7-(3-hydroxy-3-methylbutoxy)naphthalen-2-yl)−1,2,5-thiadiazolidin-3-one 1,1-dioxide]: the concentration for half-maximal inhibition (IC50) in experiment [1] was greater than 20 µM. Besides, the “Tumour weights MC38, individual mice” value in experiment [2] (10 mg, Figure 4A, listed as CMP-182, in mg (unit assumed)) is 243 and 125 and 480 and 119 and 315. Besides, the “Tumour growth MC38, individual mice” value was 20.3252 and 20.2131 and 15.2865 and 13.9084 and 14.2859 in experiment [2] (10 mg, day 7 post injection, listed as CMP-182, in mm2); 21.1854 and 45.7254 and 22.9296 and 28.815 and 21.9308 in experiment [2] (10 mg, day 10 post injection, listed as CMP-182, in mm2); 21.6489 and 72.4458 and 32.816 and 40.3221 and 29.9376 in experiment [2] (10 mg, day 13 post injection, listed as CMP-182, in mm2); 31.85 and 42.18 and 22.5 and 27 and 32.94 in experiment [2] (10 mg, day 15 post injection, listed as CMP-182, in mm2); 29.5394 and 119.382 and 44.1741 and 56.472 and 40.779 in experiment [2] (10 mg, day 16 post injection, listed as CMP-182, in mm2); 34.2 and 109.2 and 37.7 and 77.4 and 61.62 in experiment [2] (10 mg, day 18 post injection, listed as CMP-182, in mm2). Moreover, in experiment [2] (10 mg, day 20 post injection, listed as CMP-182, in mm2), the “Tumour growth MC38, individual mice” value was 38.76 and 109.2 and 38.35 and 60.8 and 61.62. The “growth of subcutaneous MC38 colorectal tumors” value in experiment [2] (10 mg/kg i.v. every 2 days) is “repressed the growth”. The “Tumour size, mean over all time points” value in experiment [2] (Figure 4A (MC38), CMP-182 10 mg, n=5, line printed as AT-3, in mm2) turned out to be 42.78. The “Tumour weights, median” value in experiment [2] (MC38 tumours, CMP-182 10 mg, Figure 4A) is given as 243.0, n=5. Moreover, the “Tumour size, Predicted (LS) mean 2” value in experiment [2] (MC38 tumours, CMP-182 10 mg, n=5, time point 7, Figure 4A, in mm2) was 16.8; in experiment [2] (MC38 tumours, CMP-182 10 mg, n=5, time point 10, Figure 4A, in mm2), 28.12; in experiment [2] (MC38 tumours, CMP-182 10 mg, n=5, time point 13, Figure 4A, in mm2) it was 39.43; in experiment [2] (MC38 tumours, CMP-182 10 mg, n=5, time point 15, Figure 4A, in mm2), 31.29; in experiment [2] (MC38 tumours, CMP-182 10 mg, n=5, time point 16, Figure 4A, in mm2) it was 58.07; in experiment [2] (MC38 tumours, CMP-182 10 mg, n=5, time point 18, Figure 4A, in mm2), 64.02. Also, in experiment [2] (MC38 tumours, CMP-182 10 mg, n=5, time point 20, Figure 4A, in mm2), the “Tumour size, Predicted (LS) mean 2” value was 61.75. For the same compound, the “IL-15-induced p-STAT-5 in NK cells” value in experiment [3] was “did not enhance”. The “response of AT3 tumors to PD-1 checkpoint blockade” value in experiment [4] (10 mg/kg i.v. every 2 days with α-PD-1 200 μg i.p. twice per week) is reported as “rendered otherwise largely resistant AT3 tumors sensitive”. Besides, the “AT3 tumor growth, combination therapy” value in experiment [4] (Compound 182 10 mg/kg i.v. + α-PD-1 200 μg i.p.) was “marked repression”. For the same compound, in experiment [4] (Figure 9C, AT-3, individual mice, listed as CMP-182, in mg (unit assumed)), the Tumour weights is 195 and 335 and 220 and 301 and 250 and 332.
